Assays:
[1] = tested on: MDA-MB-231, human mammary gland (epithelial) adenocarcinoma, estrogen receptor negative; test: Cell killing in MDA-MB-231; assay type: cell-based; settings: for effectiveness of compositions comprising another dithiocarbonyl compared with PDC: same conditions as the PDC compositions
Method: (§1) To determine the effects of the present compositions, cells were grown in the indicated medium in either 12-well plates (to assess morphological changes and measure DNA synthesis); 6-well plates (for determination of apoptosis/necrosis); or 96-well plates (for determination of cellular proliferation by the MTT assay). All media contained 10% fetal bovine serum. In each experiment, the medium was replaced with fresh medium at 2 h. prior to treatment. Treatments were performed with sterile solutions of the compositions (made up either in the respective medium or water) for 1 min.-72 h. In some cases, treatments were done for 1 min., followed by incubation of washed cells for various time periods.
(§2) Cells were cultured in Leibovitz's L-15 cell culture medium (Gibco) and 10% fetal bovine serum; the medium was changed 6 h. prior to treatment. […] For DNA synthesis experiments, cells were incubated with [^3H]-thymidine (1 μCi/ml) between 40-50 mins. of treatment; for cell proliferation experiments, cells were trypsinized after treatment, re-plated, and viable cells counted 1 week later.

[2] = tested on: MDA-MB-468, human mammary gland (epithelial) adenocarcinoma, estrogen receptor negative; test: Cell killing in MDA-MB-468; assay type: cell-based; settings: in the above experiments
Method: as §1
as §2, with “L-15” for “L-15 cell culture”, “medium” for “medium (Gibco)”, “120-130” for “40-50”

[3] = tested on: T-47D, human mammary gland (epithelial) ductal carcinoma, estrogen receptor positive; test: Cell killing in T-47D; assay type: cell-based
Method: as §1
as §2, with “modified RPMI 1640” for “Leibovitz's L-15”, “(see Gibco Catalogue), with 2 mM L-glutamine, 10 mM Hepes, 1 mM sodium pyruvate, 4.5 g/L glucose, 1.5 g/L sodium bicarbonate, 0.2 I.U. bovine insulin/ml,” for “(Gibco)”, “120-130” for “40-50”, “replated,” for “re-plated,”

[4] = tested on: ZR-75-1, human mammary gland (epithelial) ductal carcinoma, ascites, estrogen receptor positive; test: Cell killing in ZR-75-1; assay type: cell-based
Method: as §1
ZR-75-1, human mammary gland (epithelial) ductal carcinoma, ascites, estrogen receptor positive. Cells were cultured in modified RPMI 1640 medium with 2 mM L-glutamine, 10 mM Hepes, 1 mM sodium pyruvate, 4.5 g/L glucose, 1.5 g/L sodium bicarbonate, 0.2 I.U. bovine insulin/ml, and 10% fetal bovine serum; the medium was changed 6 h. prior to treatment. […] For DNA synthesis experiments, cells were incubated with [^3H]-thymidine (1 μCi/ml) between 120-130 mins. of treatment; for cell proliferation experiments, cells were trypsinized after treatment, re-plated, and viable cells counted 1 week later.

[5] = tested on: MCF-7, human breast carcinoma cells, estrogen receptor positive; test: Cell killing in MCF-7; assay type: cell-based; settings: in the above experiments
Method: as §1
Cells were cultured in Dulbecco's modified Eagle's medium containing 2 mM L-glutamine and 10% fetal calf serum; the medium was changed 2 h prior to treatments. […] For DNA synthesis experiments, cells were incubated with [^3H]-thymidine ([…]) between 120-130 min of treatment; for cell proliferation experiments, cells were trypsinized after treatment, re-plated, and viable cells counted 1 week later.

normal cells = test: Proliferation of normal cells; assay type: cell-based
[6] = tested on: T-47D, 2R-75-1, A431, MDA-MB-231, AN3Ca, CaOV3; test: Proliferation of cancer cell lines; assay type: cell-based
BDF1 adult female mice = test: In vivo acute toxicological investigation, intraperitoneal; settings: alone, 0.5-2 mM in physiological saline, followed 21 days
Method: Specified pathogen free (SPF) hygienic category first generation hybrid BDF1 (C57B1 female×DBA/2 male) adult female mice weighing 22-23 g were used. The animals were kept in macrolon cages at 22-24 C (45-55% humidity), with a lighting regimen of 12/12 h light/dark.
The animals were followed for 21 days and evaluated based on survival and body weight. Seven animals were evaluated for each treatment.

[7] = components at 50 μM PDC, 120 μM Zn, 100 μM EA, 3 mM DMETN, 2 h

With `S=C(S)OC1CC2CC1C1CCCC21` (stereo not shown) [Composition D609] the “effectiveness of compositions comprising another dithiocarbonyl compared with PDC” value (from here on “effectiveness … compared with PDC”) [1] was “as effective as compositions comprising PDC”, the “effectiveness … compared with PDC” value [2] was “as effective as those comprising PDC” and the “effectiveness … compared with PDC” value ([3]; in the above experiments) was “as effective as those comprising PDC”. For the same molecule, the “effectiveness … compared with PDC” value ([4]; in the above experiments) was “as effective as those comprising PDC” and the “effectiveness … compared with PDC” value [5] was “as effective as those comprising PDC”.

`CN(C)CCO` [DMETN, dimethylethanolamine] was tested, and the “proliferation of normal cells” value (normal cells) was “generally increasing proliferation” and the “proliferation of cancer cell lines” value [6] was “inhibits proliferation”.

In the case of `C=C(CC)C(=O)c1ccc(OCC(=O)O)c(Cl)c1Cl` [EA, ethacrynic acid], the “acute toxicity (survival and body weight)” value (BDF1 adult female mice) is reported as “not toxic”, the cells killed ([1]; 60 μM EA alone, after 3 h) is reported as “about 100%” and the cells killed ([1]; components at 25 μM PDC, 60 μM Zn, 60 μM EA, 3 mM DMETN, 40 min) is reported as “about 70%”. The cells killed [3, 7] was “about 100%” and the cells killed [4, 7] was “about 100%”.

`CCN(CC)C(=S)SSC(=S)N(CC)CC` [disulfuram, tetraethylthiuram disulfide] was tested, and the “effectiveness … compared with PDC” value [1] was “as effective as compositions comprising PDC”.
